Values quoted from earlier work, collected in article PMC4877185 (Molecular imaging and biology : MIB : the official …, 2016).

Columns and labels:
GLP-1R [1] = conditions: read-out: cAMP EC50; unlabeled conjugates, GLP-1R agonist
GLP-1R [2] = conditions: greater affinity than truncated antagonist exendin-(9–39)-amide

Row | Substance | EC50 (GLP-1R [1]) [nM] | Binding affinity for GLP-1R relative to exendin-(9–39)-amide (GLP-1R [2]) [fold]
1 | DO3A-VS-Cys^40-exendin-4 | 0.027 | 
2 | Exendin-4 |  | ~10
